This is an account of results in patent US8211935B2, “Heterocyclic derivatives for modulation of calcium channels” (Vertex Pharmaceuticals Incorporated, priority 2004, dated 2012).

Structures are written as SMILES. Where two headings read alike, the source gives them in different places.

In general, IC50 refers to the concentration needed to halve the response being measured.

The experiment concerns the target T1, CaV2.2 (Homo sapiens, UniProt Q00975).
T1 construct: expressed in transfected cells; host or cells: HEK293
As to the kind of experiment: VIPR optical membrane potential assay with electrical stimulation. The format is cell-based. On the procedure:
Antagonist properties of test compounds were assessed as follows. Cells expressing the CaV of interest were placed into microtiter plates. After an incubation period, the cells were stained with fluorescent dyes sensitive to the transmembrane potential. The test compounds were added to the microtiter plate. The cells were stimulated with electrical means to evoke a CaV dependent membrane potential change from unblocked channels, which was detected and measured with trans-membrane potential-sensitive dyes. Antagonists were detected as a decreased membrane potential response to the stimulus.
VIPR® Optical Membrane Potential Assay Method with Electrical Stimulation
The following is an example of how CaV2.2 inhibition activity is measured using the optical membrane potential method. Other subtypes are performed in an analogous mode in a cell line expressing the CaV of interest.
HEK293 cells stably expressing CaV2.2 are plated into 96-well microtiter plates. After an appropriate incubation period, the cells are stained with the voltage sensitive dyes CC2-DMPE/DiSBAC2(3) as follows.
2×CC2-DMPE=20 μM CC2-DMPE: 10 mM CC2-DMPE is vortexed with an equivalent volume of 10% Pluronic, followed by vortexing in required amount of HBSS containing 10 mM HEPES. Each cell plate will require 5 mL of 2×CC2-DMPE. 50 μL of 2×CC2-DMPE is added to wells containing washed cells, resulting in a 10 μM final staining concentration. The cells are stained for 30 minutes in the dark at RT.
Vortex in required amount of Bath X with beta-cyclodextrin. Each 96 well cell plate will require 5 ml of 2×CC2DMPE. Wash plate with ELx405 with Bath X, leaving a residual volume of 50 μL/well. Add 50 μL of 2×CC2DMPE & DISBAC6(3) to each well. Stain for 30 minutes in the dark at RT.
Allow solution to sit for 10 minutes. Slowly mix in 370 mM BaCl2. This solution can be used to solvate compound plates. Note that compound plates are made at 1.5× drug concentration and not the usual 2×. Wash CC2 stained plate, again, leaving residual volume of 50 pt. Add 100 uL/well of the AY17 solution. Stain for 15 minutes in the dark at RT. Run plate on the optical reader.
The instrument comprises a microtiter plate handler, an optical system for exciting the coumarin dye while simultaneously recording the coumarin and oxonol emissions, a waveform generator, a current- or voltage-controlled amplifier, and a device for inserting electrodes in well. Under integrated computer control, this instrument passes user-programmed electrical stimulus protocols to cells within the wells of the microtiter plate.
Insert or use electrodes into each well to be assayed.
Use the current-controlled amplifier to deliver stimulation wave pulses for 3-5 s. Two seconds of pre-stimulus recording are performed to obtain the un-stimulated intensities. Five seconds of post-stimulation recording are performed to examine the relaxation to the resting state.
Data are analyzed and reported as normalized ratios of background-subtracted emission intensities measured in the 460 nm and 580 nm channels. Background intensities are then subtracted from each assay channel. Background intensities are obtained by measuring the emission intensities during the same time periods from identically treated assay wells in which there are no cells. The response as a function of time is then reported as the ratios obtained using the following formula: […]
The data is further reduced by calculating the initial (Ri) and final (Rf) ratios. These are the average ratio values during part or all of the pre-stimulation period, and during sample points during the stimulation period. The response to the stimulus R=Rf/Ri is then calculated.
Control responses are obtained by performing assays in the presence of a compound with the desired properties (positive control), such as mibefradil, and in the absence of pharmacological agents (negative control). Responses to the negative (N) and positive (P) controls are calculated as above.

[1] abbreviates: Table 3, biological assay data, read-out: IC50.

T1 sequence (Q00975 whole entry): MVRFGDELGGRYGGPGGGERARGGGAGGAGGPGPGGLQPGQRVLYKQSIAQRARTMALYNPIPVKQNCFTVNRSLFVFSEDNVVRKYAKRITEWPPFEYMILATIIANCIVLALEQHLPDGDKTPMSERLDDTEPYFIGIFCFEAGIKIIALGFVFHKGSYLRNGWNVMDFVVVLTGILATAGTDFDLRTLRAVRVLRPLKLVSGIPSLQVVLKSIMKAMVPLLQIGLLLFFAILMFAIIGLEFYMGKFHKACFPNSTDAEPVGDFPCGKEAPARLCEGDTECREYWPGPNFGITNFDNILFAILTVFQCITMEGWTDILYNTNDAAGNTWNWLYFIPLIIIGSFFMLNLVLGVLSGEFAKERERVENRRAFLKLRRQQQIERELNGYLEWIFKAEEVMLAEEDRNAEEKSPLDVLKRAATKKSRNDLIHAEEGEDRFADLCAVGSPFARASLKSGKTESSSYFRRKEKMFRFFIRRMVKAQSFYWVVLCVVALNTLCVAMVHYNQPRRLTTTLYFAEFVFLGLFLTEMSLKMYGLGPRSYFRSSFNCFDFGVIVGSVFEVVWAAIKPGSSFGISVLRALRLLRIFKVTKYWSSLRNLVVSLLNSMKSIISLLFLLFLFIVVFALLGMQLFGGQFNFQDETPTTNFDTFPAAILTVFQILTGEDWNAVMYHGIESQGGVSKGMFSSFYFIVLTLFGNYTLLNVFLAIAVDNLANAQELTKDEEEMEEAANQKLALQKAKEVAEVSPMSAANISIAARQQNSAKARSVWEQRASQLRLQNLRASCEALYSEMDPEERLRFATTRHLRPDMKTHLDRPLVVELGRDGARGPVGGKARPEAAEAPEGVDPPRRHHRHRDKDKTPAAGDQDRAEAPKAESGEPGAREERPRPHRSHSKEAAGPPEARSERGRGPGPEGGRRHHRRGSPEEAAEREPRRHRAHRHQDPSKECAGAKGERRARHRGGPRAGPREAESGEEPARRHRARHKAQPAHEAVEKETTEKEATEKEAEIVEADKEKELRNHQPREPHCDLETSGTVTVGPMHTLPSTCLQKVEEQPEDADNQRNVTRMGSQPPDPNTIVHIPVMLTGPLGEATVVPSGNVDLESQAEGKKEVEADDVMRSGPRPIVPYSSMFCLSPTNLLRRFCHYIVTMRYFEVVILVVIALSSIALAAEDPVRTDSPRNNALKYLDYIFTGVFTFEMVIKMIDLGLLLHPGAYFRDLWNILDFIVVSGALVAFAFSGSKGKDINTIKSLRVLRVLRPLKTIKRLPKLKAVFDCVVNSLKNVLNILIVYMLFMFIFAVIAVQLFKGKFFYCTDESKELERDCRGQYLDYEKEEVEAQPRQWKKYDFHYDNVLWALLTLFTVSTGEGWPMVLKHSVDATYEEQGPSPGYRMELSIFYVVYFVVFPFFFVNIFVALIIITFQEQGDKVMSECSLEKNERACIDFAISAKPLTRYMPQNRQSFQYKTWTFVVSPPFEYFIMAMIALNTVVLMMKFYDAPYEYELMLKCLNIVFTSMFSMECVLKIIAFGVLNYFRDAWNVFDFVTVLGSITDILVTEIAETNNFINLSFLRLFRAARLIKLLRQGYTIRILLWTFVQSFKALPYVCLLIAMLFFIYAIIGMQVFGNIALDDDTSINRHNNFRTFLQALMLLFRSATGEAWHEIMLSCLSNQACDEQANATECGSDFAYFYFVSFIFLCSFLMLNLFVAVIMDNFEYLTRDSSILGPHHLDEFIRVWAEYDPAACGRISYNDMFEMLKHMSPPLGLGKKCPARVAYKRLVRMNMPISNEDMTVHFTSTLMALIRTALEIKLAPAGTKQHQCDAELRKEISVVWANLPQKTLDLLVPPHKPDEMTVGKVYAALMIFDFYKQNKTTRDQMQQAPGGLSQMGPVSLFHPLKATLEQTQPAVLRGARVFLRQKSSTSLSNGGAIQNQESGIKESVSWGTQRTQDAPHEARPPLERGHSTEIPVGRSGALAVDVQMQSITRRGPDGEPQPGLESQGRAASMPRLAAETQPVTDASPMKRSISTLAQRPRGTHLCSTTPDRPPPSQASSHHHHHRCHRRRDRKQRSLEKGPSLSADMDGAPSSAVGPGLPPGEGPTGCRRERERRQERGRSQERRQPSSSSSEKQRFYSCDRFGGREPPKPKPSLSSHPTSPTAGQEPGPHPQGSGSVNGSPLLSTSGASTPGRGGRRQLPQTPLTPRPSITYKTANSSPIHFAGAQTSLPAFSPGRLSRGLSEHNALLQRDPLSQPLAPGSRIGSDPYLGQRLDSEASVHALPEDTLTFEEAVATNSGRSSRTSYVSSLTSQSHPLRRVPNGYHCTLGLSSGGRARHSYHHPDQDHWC
T1 sequence (P54284 whole entry partner): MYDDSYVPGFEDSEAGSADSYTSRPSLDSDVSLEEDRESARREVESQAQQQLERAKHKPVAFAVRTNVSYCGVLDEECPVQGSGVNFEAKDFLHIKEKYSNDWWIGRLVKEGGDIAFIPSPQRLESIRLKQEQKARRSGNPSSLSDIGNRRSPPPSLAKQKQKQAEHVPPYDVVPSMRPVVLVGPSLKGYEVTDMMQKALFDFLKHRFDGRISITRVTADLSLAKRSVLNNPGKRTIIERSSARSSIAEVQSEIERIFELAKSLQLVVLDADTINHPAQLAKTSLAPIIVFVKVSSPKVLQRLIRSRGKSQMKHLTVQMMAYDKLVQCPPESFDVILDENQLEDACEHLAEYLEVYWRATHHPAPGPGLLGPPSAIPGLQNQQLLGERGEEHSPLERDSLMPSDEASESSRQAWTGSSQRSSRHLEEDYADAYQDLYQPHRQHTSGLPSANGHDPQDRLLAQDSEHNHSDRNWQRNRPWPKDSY
T1 sequence (P54289 25-946 partner limits assumed): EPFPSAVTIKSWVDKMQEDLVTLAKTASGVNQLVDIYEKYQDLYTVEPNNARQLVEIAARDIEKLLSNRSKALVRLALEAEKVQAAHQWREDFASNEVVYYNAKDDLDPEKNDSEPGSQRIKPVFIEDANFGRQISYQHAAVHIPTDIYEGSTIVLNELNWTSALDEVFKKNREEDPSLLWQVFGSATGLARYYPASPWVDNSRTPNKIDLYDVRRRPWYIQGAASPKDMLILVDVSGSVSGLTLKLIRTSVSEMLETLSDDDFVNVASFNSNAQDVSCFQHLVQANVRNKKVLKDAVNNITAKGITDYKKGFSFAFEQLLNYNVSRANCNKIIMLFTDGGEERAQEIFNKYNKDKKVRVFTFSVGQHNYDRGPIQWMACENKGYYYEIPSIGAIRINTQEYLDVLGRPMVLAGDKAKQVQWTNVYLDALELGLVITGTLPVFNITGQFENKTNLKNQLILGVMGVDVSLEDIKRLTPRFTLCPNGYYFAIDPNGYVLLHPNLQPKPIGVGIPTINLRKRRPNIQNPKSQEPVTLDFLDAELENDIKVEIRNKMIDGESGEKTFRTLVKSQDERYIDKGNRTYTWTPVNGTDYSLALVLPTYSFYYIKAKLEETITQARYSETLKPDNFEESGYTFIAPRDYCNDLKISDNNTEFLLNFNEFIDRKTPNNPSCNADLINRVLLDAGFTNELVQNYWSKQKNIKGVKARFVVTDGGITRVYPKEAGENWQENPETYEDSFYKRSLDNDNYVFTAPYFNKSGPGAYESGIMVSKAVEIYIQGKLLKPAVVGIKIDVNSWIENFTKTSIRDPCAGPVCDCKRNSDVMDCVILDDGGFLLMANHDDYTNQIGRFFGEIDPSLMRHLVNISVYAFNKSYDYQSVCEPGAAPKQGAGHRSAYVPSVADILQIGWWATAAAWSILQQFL
T1 sequence (P54289 947-1103 partner limits assumed): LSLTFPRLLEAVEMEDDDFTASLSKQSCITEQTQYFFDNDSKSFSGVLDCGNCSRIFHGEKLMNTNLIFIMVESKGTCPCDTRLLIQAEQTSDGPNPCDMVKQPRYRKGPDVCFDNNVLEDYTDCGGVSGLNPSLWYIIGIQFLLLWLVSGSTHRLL

Take `CCN(CC)C(=O)c1cc2cc(S(=O)(=O)N3CCCCCC3)ccc2o1` [compound 1]: under setting [1], the IC50 was 5 to 20 µM.
On the same count and under the same terms, in the case of `CC1CC(C)CN(S(=O)(=O)c2ccc3oc(C(=O)NCCc4ccccc4)cc3c2)C1` (stereo not drawn) [compound 2] it was < 5 µM; in that of `Cc1c(C(=O)N2CCN(C)CC2)[nH]c2ccc(S(=O)(=O)N3CCCCCC3)cc12` [compound 3], < 20 µM; in that of `Cc1c(C(=O)N2CCC(C)CC2)oc2ccc(S(=O)(=O)N3CCC4(CC3)OCCO4)cc12` [compound 4], 5 to 20 µM.
As to `O=C(NCCCc1ccccc1)c1cc2cc(S(=O)(=O)N3CCCCCC3)ccc2[nH]1` [compound 5], under setting [1], the IC50 is < 5 µM.
Same read-out and setting: the same measure for `Cc1c(C(=O)NCCC2CCOCC2)oc2ccc(S(=O)(=O)N3CC(C)CC(C)C3)cc12` (stereo not drawn) [compound 6]: < 5 µM; for `CCN(CC)C(=O)c1[nH]c2ccc(S(=O)(=O)N3CC(C)CC(C)C3)cc2c1C` (stereo not drawn) [compound 7]: < 5 µM; for `CC1CCN(S(=O)(=O)c2ccc3[nH]c(C(=O)NCCC4CCOCC4)cc3c2)CC1` [compound 8]: < 5 µM.
Still for that read-out and setting: in the case of `Cc1c(C(=O)NC2CCCCC2)oc2ccc(S(=O)(=O)N3CCCC(C)C3)cc12` (stereo not drawn) [compound 9] it was < 5 µM; in that of `CNC(=O)c1oc2ccc(S(=O)(=O)N3CCC(C)CC3)cc2c1C` [compound 10], 5 to 20 µM; in that of `CC1CCN(S(=O)(=O)c2ccc3[nH]c(CN4CCCCC4)cc3c2)CC1` [compound 11], < 5 µM.
On the same count and under the same terms, the same measure for `Cc1c(C(=O)N2CCCC2)oc2ccc(S(=O)(=O)N3CCC(C)CC3)cc12` [compound 12]: 5 to 20 µM; for `Cc1c(C(=O)NCCc2ccccc2)[nH]c2ccc(S(=O)(=O)N3CC(C)CC(C)C3)cc12` (stereo not drawn) [compound 13]: < 5 µM; for `Cc1c(C(=O)N2CCCCC2C)oc2ccc(S(=O)(=O)N3CCOCC3)cc12` (stereo not drawn) [compound 14]: < 20 µM.
Take `CCN(CC)C(=O)c1oc2ccc(S(=O)(=O)N3CCC(C)CC3)cc2c1C` [compound 15]: the IC50 under setting [1] fell in the range of 5 to 20 µM.
The same measure, in the same setting: in the case of `CC1CC(C)CN(S(=O)(=O)c2ccc3[nH]c(C(=O)NCC4CCCO4)cc3c2)C1` (stereo not drawn) [compound 16] it was < 5 µM; in that of `CC1CC(C)CN(C(=O)c2cc3cc(S(=O)(=O)N4CCCCCC4)ccc3[nH]2)C1` (stereo not drawn) [compound 17], 5 to 20 µM.
On the same count and under the same terms, the same measure for `Cc1c(C(=O)N2CCCC2)oc2ccc(S(=O)(=O)N3CCCCC3)cc12` [compound 18]: 5 to 20 µM.
`CCOC(=O)C1CCN(C(=O)c2oc3ccc(S(=O)(=O)N4CCCCCC4)cc3c2C)CC1` [compound 19]: the half-maximal inhibitory concentration (IC50) under setting [1] was < 5 µM.
Same read-out and setting: in the case of `Cc1c(C(=O)NC2CC2)oc2ccc(S(=O)(=O)Nc3ncccn3)cc12` [compound 20] it was < 20 µM; in that of `Cc1c(C(=O)NC(C)C)oc2ccc(S(=O)(=O)N3CC(C)CC(C)C3)cc12` (stereo not drawn) [compound 21], < 5 µM.
Take `CNC(=O)c1oc2ccc(S(=O)(=O)N3CCOCC3)cc2c1C` [compound 22]: under setting [1], the IC50 is < 20 µM.
The same measure, in the same setting: the same measure for `O=C(NCCC1CCOCC1)c1cc2cc(S(=O)(=O)N3CCCCCC3)ccc2o1` [compound 23]: < 5 µM; for `Cc1c(C(=O)NC2CC2)oc2ccc(S(=O)(=O)N(CCN(C)C)Cc3ccccc3)cc12` [compound 24]: < 20 µM; for `Cc1c(C(=O)NC2CC2)oc2ccc(S(=O)(=O)NCCN3CCCCC3)cc12` [compound 25]: < 20 µM.
On the same count and under the same terms, the same measure for `Cc1c(C(=O)N2CCCC2)oc2ccc(S(=O)(=O)N3CCOCC3)cc12` [compound 26]: < 20 µM; for `Cc1c(C(=O)NCCC2CCOCC2)[nH]c2ccc(S(=O)(=O)N3CCC(C)CC3)cc12` [compound 27]: 5 to 20 µM.
On to `Cc1c(C(=O)NC(C)c2ccccc2)oc2ccc(S(=O)(=O)N3CCCC3)cc12` (stereo not drawn) [compound 28], for which the IC50 under setting [1] is < 20 µM.
Turning to `CC1CC(C)CN(C(=O)c2cc3cc(S(=O)(=O)N4CC(C)CC(C)C4)ccc3o2)C1` (stereo not drawn) [compound 29], the IC50 under setting [1] was < 5 µM.
For the compound `CNC(=O)c1[nH]c2ccc(S(=O)(=O)N3CCC(C)CC3)cc2c1C` [compound 30], the IC50 under setting [1] was in the range of 5 to 20 µM.
On the same count and under the same terms, in the case of `CCN(CC)C(=O)c1cc2cc(S(=O)(=O)N3CC(C)CC(C)C3)ccc2o1` (stereo not drawn) [compound 31] it was < 5 µM.
Consider `Cc1c(C(=O)NCC2CCCO2)oc2ccc(S(=O)(=O)N3CC(C)CC(C)C3)cc12` (stereo not drawn) [compound 32], for which, under setting [1], the IC50 is < 5 µM.
Regarding `Cc1c(C(=O)N2CC(C)CC(C)C2)oc2ccc(S(=O)(=O)N3CCC(C)CC3)cc12` (stereo not drawn) [compound 33], the IC50 under setting [1] was in the range of 5 to 20 µM.
Same read-out and setting: the same measure for `O=C(NCc1ccccc1)c1cc2cc(S(=O)(=O)N3CCCCCC3)ccc2o1` [compound 34]: < 5 µM; for `Cc1c(C(=O)NC2CC2)oc2ccc(S(=O)(=O)N3CCC(F)(F)CC3)cc12` [compound 35]: 5 to 20 µM.
For the compound `CC1CCN(S(=O)(=O)c2ccc3[nH]c(C(=O)NCc4ccccc4)cc3c2)CC1` [compound 36], under setting [1], the IC50 was < 5 µM.
With `CNC(=O)c1cc2cc(S(=O)(=O)N3CC(C)CC(C)C3)ccc2[nH]1` (stereo not drawn) [compound 37], the IC50 under setting [1] is < 5 µM.
Same read-out and setting: in the case of `Cc1c(C(=O)NCC2CCOCC2)oc2ccc(S(=O)(=O)N3CCCCCC3)cc12` [compound 38] it was 5 to 20 µM.
Same read-out and setting: in the case of `Cc1c(C(=O)NC2CCC(C)CC2)oc2ccc(S(=O)(=O)N3CCOCC3)cc12` (stereo not drawn) [compound 39] it was < 20 µM; in that of `O=C(NCCCc1ccccc1)c1cc2cc(S(=O)(=O)N3CCCCCC3)ccc2o1` [compound 40], < 5 µM.
Still for that read-out and setting: in the case of `O=C(NC1CCCC1)c1cc2cc(S(=O)(=O)N3CCCCCC3)ccc2[nH]1` [compound 41] it was 5 to 20 µM; in that of `Cc1c(C(=O)N2CCCCC2C)oc2ccc(S(=O)(=O)N3CCC(C)CC3)cc12` (stereo not drawn) [compound 42], < 5 µM.
As to `CN(Cc1ccccc1)C(=O)c1cc2cc(S(=O)(=O)N3CCCCCC3)ccc2o1` [compound 43], the IC50 under setting [1] is < 5 µM.
Still for that read-out and setting: in the case of `Cc1c(C(=O)NCc2ccccc2)oc2ccc(S(=O)(=O)N3CCCCCC3)cc12` [compound 44] it was 5 to 20 µM.
On the same count and under the same terms, the same measure for `Cc1c(C(=O)N2CCCCCC2)oc2ccc(S(=O)(=O)N3CCCCCC3)cc12` [compound 45]: < 5 µM; for `CCN(CC)C(=O)c1cc2cc(S(=O)(=O)N3CCCCCC3)ccc2[nH]1` [compound 46]: < 5 µM.
On the same count and under the same terms, the same measure for `Cc1c(C(=O)NC(C)C)oc2ccc(S(=O)(=O)N3CCCC(C)C3)cc12` (stereo not drawn) [compound 47]: 5 to 20 µM.
On to `O=C(NCCc1ccccc1)c1cc2cc(S(=O)(=O)N3CCCCCC3)ccc2o1` [compound 48], for which the IC50 under setting [1] is < 5 µM.
On the same count and under the same terms, in the case of `Cc1c(C(=O)NCCCc2ccccc2)[nH]c2ccc(S(=O)(=O)N3CC(C)CC(C)C3)cc12` (stereo not drawn) [compound 49] it was < 5 µM; in that of `Cc1c(C(=O)NC2CC2)oc2ccc(S(=O)(=O)Nc3ccccn3)cc12` [compound 50], < 20 µM; in that of `CCN(CC)S(=O)(=O)c1ccc2oc(C(=O)NC)c(C)c2c1` [compound 51], < 20 µM.
The same measure, in the same setting: the same measure for `CC(C)N(C(=O)c1cc2cc(S(=O)(=O)N3CCCCCC3)ccc2[nH]1)C(C)C` [compound 52]: 5 to 20 µM; for `CC1CC(C)CN(S(=O)(=O)c2ccc3oc(C(=O)NCCCc4ccccc4)cc3c2)C1` (stereo not drawn) [compound 53]: < 5 µM.
In turn, `CC1CCN(S(=O)(=O)c2ccc3[nH]c(C(=O)N4CCC5(CC4)OCCO5)cc3c2)CC1` [compound 54] gave an IC50 of 5 to 20 µM.
For `CC1CCCN(C(=O)c2cc3cc(S(=O)(=O)N4CCCCCC4)ccc3[nH]2)C1` (stereo not drawn) [compound 55], the 50% inhibitory concentration (IC50) under setting [1] is < 5 µM.
In the case of `Cc1c(C(=O)NCCCc2ccccc2)oc2ccc(S(=O)(=O)N3CC(C)CC(C)C3)cc12` (stereo not drawn) [compound 56], the IC50 under setting [1] was < 5 µM.
On the same count and under the same terms, in the case of `Cc1c(C(=O)NC(C)C2=CCCCC2)oc2ccc(S(=O)(=O)N3CCCCC3)cc12` (stereo not drawn) [compound 57] it was 5 to 20 µM.
